We go through eight molecules from patent US20020045595A1, “N6 heterocyclic 8-modified adenosine derivatives” (priority 1999, published 2002).

The subject of assay [1] is A1 adenosine receptor (DDT1 cells). As to the kind of experiment: cAMP assay (SPA) in DDT1 cells with forskolin. It is filed as cell-based, hamster. To be noted: 5 μM forskolin; for cAMP: rolipram 50 μM, normalized to the full agonist CPA. On the procedure:
(§1) DDT cells (hamster vas deferens smooth muscle cell line) were grown as monolayers in petri dishes using Dulbecco's Modified Eagle's Medium (DMEM) containing 2.5 μg ml^−1 amphotericin B, 100 U ml^−1 penicillin G, 0.1 mg ml^−1 streptomycin sulfate and 5% fetal bovine serum in a humidified atmosphere of 95% air and 5% CO2. Cells were subcultured twice weekly by dispersion in Hank's Balanced Salt Solution (HBSS) without the divalent cations and containing 1 mM EDTA. The cells were then seeded in growth medium at a density of […] per plate and experiments were performed 4 days later at approximately one day preconfluence.
A scintillation proximity assay (SPA) using rabbit antibodies directed at cAMP using an added tracer of adenosine 3′,5′-cyclic phosphoric acid 2′-O-succinyl-3-[^125I] iodotyrosine methyl ester and fluoromicrospheres containing anti-rabbit specific antibodies as described by Amersham Pharmacia Biotech (Biotrak cellular communication assays). Briefly, DDT1 cells were cultured in clear bottomed 96 well microtiter plates with opaque wells at concentrations between 10^4 to 10^6 cells per well in 40 μl of HBSS at 37° C. (5% CO2 and 95% humidity). The partial or full A1 agonists (5 μl )of this invention were incubated at various concentrations with the DDT1 cells in the presence of rolipram (50 μM), and 5 μM forskolin for 10 min at 37° C. The cells were immediately lysed by treatment 5 μl of 10% dodecyltrimethylammonium bromide followed by shaking using microplate shaker. After incubation of the plate for 5 minutes, an immunoreagent solution (150 μl containing equal volumes of tracer, antiserum, and SPA fluorospheres) was added to each well followed by sealing the plate. After 15-20 h at 23° C., the amount of bound [^125I] cAMP to the fluoromicrospheres was determined by counting in a microtitre plate scintillation counter for 2 minutes. Comparison of counts with standard curves generated for cAMP using a similar protocol afforded the cAMP present after cell lysis.

Another assay has as its target T1, A1 receptor (Sus scrofa, UniProt I3LEN5).
T1 sequence (I3LEN5 1-326): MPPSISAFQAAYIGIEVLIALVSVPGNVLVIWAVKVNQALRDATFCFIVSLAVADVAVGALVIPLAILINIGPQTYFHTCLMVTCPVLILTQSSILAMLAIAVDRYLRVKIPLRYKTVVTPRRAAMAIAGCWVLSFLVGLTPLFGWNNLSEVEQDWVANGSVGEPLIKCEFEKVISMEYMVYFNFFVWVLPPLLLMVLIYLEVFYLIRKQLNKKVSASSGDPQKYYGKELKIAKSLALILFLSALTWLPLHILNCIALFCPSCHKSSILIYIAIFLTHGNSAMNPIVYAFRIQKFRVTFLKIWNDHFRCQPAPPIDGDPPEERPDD
As to the kind of experiment: Competitive binding assay, pig striatum membranes, [3H]CPX. As to conditions: pig striatum membrane prep, antagonist [3H]CPX 2 nM. The procedure:
Pig striatum were prepared by homogenation in 50 mM Tris buffer ( 5x volume of tissue mass pH=7.4). After centrifugation at 19,000 rpm for 25 minutes at 4° C., the supernatant was discarded, and the process was repeated twice. Compositions of this invention were assayed to determine their affinity for the A1 receptor in a pig striatum membrane prep or a DDT1 membrane prep. Briefly, 0.2 mg of pig striatal membranes or DDT1 cell membranes were treated with adenosine deaminase and 50 mM Tris buffer (pH=7.4) followed by mixing. To the pig membranes was added 2 μL of serially diluted DMSO stock solution of the compounds of this invention at concentrations ranging from 100 microM to 10 nM. The control received 2 microL of DMSO alone, then the antagonist [^3H] 8-cyclopentylxanthine (CPX) for pig striatum or the agonist [3H] 2-chloro-6-cyclopentyladenosine (CCPA) for DDT1 membranes in Tris buffer (50 mM, pH of 7.4) was added to achieve a final concentration of 2 nM. After bation at 23 C. for 2 h, then the solutions were filtered using a membrane harvester using iple washing of the membranes (3 x). The filter disks were counted in scintillation cocktail rding the amount of displacement of tritiated CPX or by the competitive binding ositions of this invention. Greater than a 5 point curve was used to generate Ki's and the er of experiments is indicated in the column marked in Table 1, below: […]

Another assay deals with T2, A1 AdoR (Mesocricetus auratus, UniProt A0A1U8BVR4).
T2 construct: endogenous in cells; host or cells: DDT1 (DDT) hamster vas deferens smooth muscle cells, membrane preparation
T2 sequence (A0A1U8BVR4 1-326): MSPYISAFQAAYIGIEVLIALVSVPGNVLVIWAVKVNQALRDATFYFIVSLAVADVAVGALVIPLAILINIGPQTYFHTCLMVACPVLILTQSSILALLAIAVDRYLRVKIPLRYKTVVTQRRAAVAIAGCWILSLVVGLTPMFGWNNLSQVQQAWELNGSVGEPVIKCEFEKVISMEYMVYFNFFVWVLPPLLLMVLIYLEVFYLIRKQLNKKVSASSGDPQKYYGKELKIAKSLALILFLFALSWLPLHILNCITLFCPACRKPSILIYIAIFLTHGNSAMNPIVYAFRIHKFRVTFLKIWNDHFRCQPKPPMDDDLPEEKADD
As to the kind of experiment: A1-agonist stimulated [35S]GTPγS binding assay, DDT1 membranes. In kind it is biochemical, hamster. As to conditions: [35S]GTPγS binding normalized to the full agonist CPA. On the procedure:
as §1
Attached cells were washed twice with HBSS (2×10 ml), scraped free of the plate with the aid of a rubber policeman in 5 ml of 50 mM Tris-HCl buffer pH 7.4 at 4° C. and the suspension homogenized for 10 s. The suspension was then centrifuged at 27,000 x g for 10 min. The pellet was resuspended in homogenization buffer by vortexing and centrifuged as described above. The final pellet was resuspended in 1 vol of 50 mM Tris-HCl buffer pH 7.4 containing 5 mM MgCl2 for A1 AdoR assays. For the [^35S]GTPγS binding assay the final pellet was resuspended in 50 mM Tris-HCl pH 7.4 containing 5 mM MgCl2, 100 mM NaCl and 1 mM dithiothreitol. This membrane suspension was then placed in liquid nitrogen for 10 min, thawed and used for assays. The protein content was determined with a Bradford™ Assay Kit using bovine serum albumin as standard.
A1-agonist stimulated [^35S] GTPγS binding was determined by a modification of the method described by Giersckik et al. (1991) and Lorenzen et al. (1993). […] Nonspecific binding was determined by the addition of 10 μM GTPγS. […] Previous reports have shown that agonist stimulated [^35S]GTPγS binding was dependent on the presence of GDP (Gierschik et al., 1991; Lorenzen et al., 1993; Traynor & Nahorski, 1995). […] In saturation experiments, 0.5 nM [^35S]GTPγS was incubated with 0.5-1000 nM GTPγS. At the end of the incubation, each suspension was filtered and the retained radioactivity determined as described above.
A general note: Binding of GTPγS marks nucleotide exchange on a G protein.

The structures appear in SMILES notation.

`OC[C@H]1O[C@@H](n2cnc3c(NC4CCCC4)ncnc32)[C@H](O)[C@@H]1O` [CPA, N-6-cyclopentyladenosine, reference compound]: in assay [1], the “forskolin induced cAMP generation” value is listed as “back to basal levels” and the cAMP is 100%.
For orientation: Ki means a dissociation constant, usually derived from enzyme kinetics or from competition with a known ligand. A lower Ki goes with a stronger hold on the target. `CCNc1nc2c(N[C@@H]3CCOC3)ncnc2n1[C@@H]1O[C@H](CO)[C@@H](O)[C@H]1O` [Compound 5, 2-{6-[((3 R)oxolan-3-yl)amino]-8-(ethylamino)purin-9-yl}(4 S,2 R,3 R,5 R)-5-(hydroxymethyl)oxolane-3,4-diol] showed a Ki at A1 receptor of 137 nM. The same molecule showed a GIPγS at A1 AdoR of 89%.
On A1 receptor, `CNc1nc2c(NC3CCOC3)ncnc2n1C1OC(CO)C(O)C1O` (stereo not drawn) [Compound 7] gave a Ki of 799 nM. This lies in the sub-micromolar range.
`CCCNc1nc2c(N[C@@H]3CCOC3)ncnc2n1[C@@H]1O[C@H](CO)[C@@H](O)[C@H]1O` [Compound 8, 2-{6-[((3 R)oxolan-3-yl)amino]-8-(propylamino)purin-9-yl}(4 S,2 R,3 R,5 R)-5-(hydroxymethyl)oxolane-3,4-diol] showed a Ki on A1 receptor of 1040 nM. The Ki values of the last two molecules are within 1.5-fold of each other.
In turn, `CCCCNc1nc2c(N[C@@H]3CCOC3)ncnc2n1[C@@H]1O[C@H](CO)[C@@H](O)[C@H]1O` [Compound 9, 2-{6-[((3 R)oxolan-3-yl)amino]-8-(butylamino)purin-9-yl}(4S,2 R,3 R,5 R)-5-(hydroxymethyl)oxolane-3,4-diol] showed a Ki at A1 receptor of 2840 nM.
On the same count and under the same terms, in the case of `OC[C@H]1O[C@@H](n2c(NCc3ccccc3)nc3c(N[C@@H]4CCOC4)ncnc32)[C@H](O)[C@@H]1O` [Compound 10, 2-{6-[((3 R)oxolan-3-yl)amino]-8-[benzylamino]purin-9-yl}(4 S,2 R,3 R,5 R)-5-(hydroxymethyl)oxolane-3,4-diol] it was 7470 nM.
`CC(C)Nc1nc2c(N[C@@H]3CCOC3)ncnc2n1[C@@H]1O[C@H](CO)[C@@H](O)[C@H]1O` [Compound 11, 2-{6-[((3 R)oxolan-3-yl)amino]-8-[(methylethyl)amino]purin-9-yl}(4 S,2 R,3 R,5 R)-5-(hydroxymethyl)oxolane-3,4-diol] yielded a cAMP in assay [1] of 37%. The molecule further displayed a GIPγS at A1 AdoR of 68%.
Molecule `C=CCNc1nc2c(N[C@@H]3CCOC3)ncnc2n1[C@@H]1O[C@H](CO)[C@@H](O)[C@H]1O` [Compound 12, 2-{6-[((3 R)oxolan-3-yl)amino]-8-(prop-2-enylamino)purin-9-yl}(4 S,2 R,3 R,5 R)-5-(hydroxymethyl)oxolane-3,4-diol] came in with a cAMP in assay [1] of 42%. The same molecule displayed a GIPγS on A1 AdoR of 77%.
